Active and inactive are the calls of the source. No cut-off for these calls is given here.
What was measured:
MDA-MB-231 [1] = assay: Antitumor activity against human MDA-MB-231 cells xenografted in Balb nu/nu mouse assessed as reduction in tumor growth at 10 mg/kg, ip administered every other day for 10 days; format: functional, organism-based; design: dose 10 mg/kg
[2] = target: Hypoxia-inducible factor 1-alpha (Homo sapiens) (UniProt Q16665); assay: Inhibition of HIF-1 alpha in human PANC1 cells after 3 hrs by Western blotting analysis in hypoxia condition; format: cell-based; conditions: PANC-1
[3] = target: Signal transducer and activator of transcription 3 (Homo sapiens) (UniProt P40763); assay: Inhibition of IL6-induced STAT3 phosphorylation in human PANC1 cells after 3 hrs by Western blotting analysis in hypoxia condition; format: cell-based; conditions: PANC-1
[4] = target: Signal transducer and activator of transcription 3 (Homo sapiens) (UniProt P40763); assay: Inhibition of Stat3 in human MDA-MB-231 cells assessed as inhibition of Stat3 phosphorylation at 10 uM after 18 hrs by Western blotting analysis; format: cell-based
MDA-MB-231 [5] = assay: Anticancer activity in human MDA-MB-231 cells assessed as reduction of total Stat3 level at 10 uM after 18 hrs by Western blotting analysis; format: functional, cell-based
[6] = target: Hypoxia-inducible factor 1-alpha (Homo sapiens) (UniProt Q16665); assay: Inhibition of HIF-1alpha in human MDA-MB-231 cells at 10 uM after 18 hrs by Western blotting analysis in hypoxia condition; format: cell-based
[7] = target: Signal transducer and activator of transcription 3 (Homo sapiens) (UniProt P40763); assay: Inhibition of Stat3 phosphorylation in human MDA-MB-231 cells assessed as inhibition of c-Myc expression at 1 to 20 uM by Western blotting analysis; format: cell-based
MCF7 = assay: Induction of apoptosis in human MCF7 cells up to 20 uM by MTT assay; format: functional, cell-based
[8] = target: Hypoxia-inducible factor 1-alpha (Homo sapiens) (UniProt Q16665); assay: Inhibition of HIF-1 alpha in human MDA-MB-231 cells at 1 to 20 uM by Western blotting analysis; format: cell-based
Homo sapiens = organism: Homo sapiens; assay: Inhibition of telomerase (unknown origin)
[9] = target: Signal transducer and activator of transcription 3 (Homo sapiens) (UniProt P40763); assay: Inhibition of Stat3 phosphorylation in human MDA-MB-231 cells at 1 to 20 uM by Western blotting analysis; format: cell-based

Chain of Hypoxia-inducible factor 1-alpha (Homo sapiens) (Q16665 whole entry, looked up): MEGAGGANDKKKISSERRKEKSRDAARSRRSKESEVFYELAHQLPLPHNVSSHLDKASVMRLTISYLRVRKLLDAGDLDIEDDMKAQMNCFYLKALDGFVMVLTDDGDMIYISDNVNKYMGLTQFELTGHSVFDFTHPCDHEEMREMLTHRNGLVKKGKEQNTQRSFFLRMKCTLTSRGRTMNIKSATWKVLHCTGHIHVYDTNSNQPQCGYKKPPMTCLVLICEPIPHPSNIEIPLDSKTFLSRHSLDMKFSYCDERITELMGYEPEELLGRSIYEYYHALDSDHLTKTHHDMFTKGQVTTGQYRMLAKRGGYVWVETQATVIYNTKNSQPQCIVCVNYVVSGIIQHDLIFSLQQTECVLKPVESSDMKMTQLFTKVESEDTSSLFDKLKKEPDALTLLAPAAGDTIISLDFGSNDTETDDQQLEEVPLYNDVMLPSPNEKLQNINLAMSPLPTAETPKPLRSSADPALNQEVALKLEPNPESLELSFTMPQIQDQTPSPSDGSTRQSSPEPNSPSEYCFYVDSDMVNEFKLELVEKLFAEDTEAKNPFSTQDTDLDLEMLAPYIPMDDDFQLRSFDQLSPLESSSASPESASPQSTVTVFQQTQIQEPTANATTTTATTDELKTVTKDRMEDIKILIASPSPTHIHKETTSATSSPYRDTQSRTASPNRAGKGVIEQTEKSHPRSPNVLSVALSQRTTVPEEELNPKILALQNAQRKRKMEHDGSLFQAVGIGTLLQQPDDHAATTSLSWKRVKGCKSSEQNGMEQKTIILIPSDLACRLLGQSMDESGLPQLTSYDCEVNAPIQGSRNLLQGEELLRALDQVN
Chain of Signal transducer and activator of transcription 3 (Homo sapiens) (P40763 whole entry): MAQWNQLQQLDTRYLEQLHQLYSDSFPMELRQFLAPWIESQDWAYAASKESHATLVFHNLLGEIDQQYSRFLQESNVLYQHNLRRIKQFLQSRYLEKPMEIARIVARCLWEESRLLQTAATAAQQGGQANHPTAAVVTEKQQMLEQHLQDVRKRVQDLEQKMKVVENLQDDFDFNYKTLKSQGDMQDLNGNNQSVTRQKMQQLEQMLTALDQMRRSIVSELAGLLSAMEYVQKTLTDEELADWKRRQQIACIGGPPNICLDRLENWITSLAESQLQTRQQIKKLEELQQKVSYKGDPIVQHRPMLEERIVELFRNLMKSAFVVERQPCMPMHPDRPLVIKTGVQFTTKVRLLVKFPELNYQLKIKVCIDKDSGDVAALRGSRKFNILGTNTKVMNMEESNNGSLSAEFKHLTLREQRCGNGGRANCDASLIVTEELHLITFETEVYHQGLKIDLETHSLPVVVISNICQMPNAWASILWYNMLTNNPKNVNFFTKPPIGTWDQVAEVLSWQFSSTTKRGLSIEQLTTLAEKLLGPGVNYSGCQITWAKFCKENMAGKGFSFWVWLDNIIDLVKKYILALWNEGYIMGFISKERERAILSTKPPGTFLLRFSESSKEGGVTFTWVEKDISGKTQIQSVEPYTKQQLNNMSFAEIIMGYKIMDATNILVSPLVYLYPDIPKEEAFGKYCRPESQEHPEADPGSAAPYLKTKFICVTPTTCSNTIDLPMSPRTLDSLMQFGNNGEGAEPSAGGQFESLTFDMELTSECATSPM

inhibition [2]	inhibition [3]	inhibition [4]	inhibition [6]	inhibition [7]	inhibition [8]	inhibition (Homo sapiens)	inhibition [9]	SMILES	Activity (MDA-MB-231 [1])	Activity (MDA-MB-231 [5])	Activity (MCF7)
inactive	Active							Nc1ccn([C@@H]2O[C@H](COP(=O)(O)O[C@H]3[C@@H](O)[C@H](n4cnc5c(=O)[nH]c(N)nc54)O[C@@H]3COP(=O)(O)O[C@H]3[C@@H](O)[C@H](n4cnc5c(=O)[nH]c(N)nc54)O[C@@H]3COP(=O)(O)O[C@H]3[C@@H](O)[C@H](n4cnc5c(=O)[nH]c(N)nc54)O[C@@H]3COP(=O)(O)O[C@H]3[C@@H](O)[C@H](n4ccc(N)nc4=O)O[C@@H]3COP(=O)(O)O[C@H]3[C@@H](O)[C@H](n4cnc5c(=O)[nH]c(N)nc54)O[C@@H]3COP(=O)(O)O[C@H]3[C@@H](O)[C@H](n4cnc5c(=O)[nH]c(N)nc54)O[C@@H]3COP(=O)(O)O[C@H]3[C@@H](O)[C@H](n4cnc5c(=O)[nH]c(N)nc54)O[C@@H]3COP(=O)(O)O[C@H]3[C@@H](O)[C@H](n4ccc(N)nc4=O)O[C@@H]3COP(=O)(O)O[C@H]3[C@@H](O)[C@H](n4cnc5c(=O)[nH]c(N)nc54)O[C@@H]3COP(=O)(O)O[C@H]3[C@@H](O)[C@H](n4cnc5c(=O)[nH]c(N)nc54)O[C@@H]3COP(=O)(O)O[C@H]3[C@@H](O)[C@H](n4cnc5c(=O)[nH]c(N)nc54)O[C@@H]3COP(=O)(O)O[C@H]3[C@@H](O)[C@H](n4ccc(N)nc4=O)O[C@@H]3COP(=O)(O)O[C@H]3[C@@H](O)[C@H](n4cnc5c(=O)[nH]c(N)nc54)O[C@@H]3COP(=O)(O)O[C@H]3[C@@H](O)[C@H](n4cnc5c(=O)[nH]c(N)nc54)O[C@@H]3COP(=O)(O)O[C@H]3[C@@H](O)[C@H](n4cnc5c(=O)[nH]c(N)nc54)O[C@@H]3COP(=O)(O)O)[C@@H](O)[C@H]2O)c(=O)n1	Active		
		inactive	inactive					NCCCN1C(=O)c2ccc3c4ccc5c6c(ccc(c7ccc(c2c37)C1=O)c64)C(=O)N(CCCN)C5=O		inactive	
		inactive	inactive					CN(CCCN)CCCN1C(=O)c2ccc3c4ccc5c6c(ccc(c7ccc(c2c37)C1=O)c64)C(=O)N(CCCN(C)CCCCN)C5=O		inactive	
		inactive	inactive	inactive	inactive	Active	inactive	NCCN1C(=O)c2ccc3c4ccc5c6c(ccc(c7ccc(c2c37)C1=O)c64)C(=O)N(CCN)C5=O		inactive	inactive

— ChEMBL document CHEMBL3124876, “A perylene derivative regulates HIF-1α and Stat3 signaling pathways” (Bioorg Med Chem, 2014)
